Data on 14 compounds can be found in patent US12595255B2, “Heteroaryl-substituted imidazole derivatives” (Hoffmann-La Roche Inc., priority 2021, dated 2026).

Each structure is given as a SMILES string.

The first assay has as its system Acinetobacter baumannii ATCC17961. Put plainly: Antimicrobial susceptibility testing: 90% growth inhibitory concentration (IC90) determination. Type of assay: cell-based. The note with it: ATCC17961, 90% growth inhibitory concentration, Iso-Sensitest broth, OD 600 nm over 16 h, 35±2° C., read-out: ATCC 17961 IC90. The procedure:
Assay Procedures Antimicrobial Susceptibility Testing: 90% Growth Inhibitory Concentration (IC90) Determination
The in vitro antimicrobial activity of the compounds was determined according to the following procedure:
The assay used a 10-points Iso-Sensitest broth medium to measure quantitatively the in vitro activity of the compounds against Acinetobacter baumannii ATCC17961.
Stock compounds in DMSO were serially twofold diluted (e.g. range from 50 to 0.097 μM final concentration) in 384 wells microtiter plates and inoculated with 49 μl the bacterial suspension in Iso-Sensitest medium to have a final cell concentration of ˜5×10^5 CFU/ml in a final volume/well of 50 μl/well. Microtiter plates were incubated at 35±2° C.
Bacterial cell growth was determined with the measurement of optical density at λ=600 nm each 20 minutes over a time course of 16 h. Growth inhibition was calculated during the logarithmic growth of the bacterial cells with determination of the concentration inhibiting 50% (IC50) and 90% (IC90) of the growth.
Table 1 provides the 90% growth inhibitory concentrations (IC90) in micromoles per liter of the compounds of present invention obtained against the strain Acinetobacter baumannii ATCC17961.
The IC90 is the point of the concentration-response curve where the effect stands at 90%. In the case of `CN(C)c1nc(F)c(-c2cnc(C(=O)Nc3ccc(C(=O)NC4CCN(C(=O)[C@@H]5C[C@@H](O)C[N+]5(C)C)CC4)c(Cl)c3)n2C)cc1F` [Example D12, N-[3-chloro-4-[[1-[(2S,4R)-4-hydroxy-1,1-dimethyl-pyrrolidin-1-ium-2-carbonyl]-4-piperidyl]carbamoyl]phenyl]-5-[6-(dimethylamino)-2,5-difluoro-3-pyridyl]-1-methyl-imidazole-2-carboxamide], the IC90 was 2.8 µM. On the same count and under the same terms, for `COc1ncc(-c2cnc(C(=O)Nc3ccc(C(=O)N4CCN(C(=O)C5CCNCC5)CC4)c(Cl)c3)n2C)c(C(F)(F)F)n1` [Example A10, N-[3-chloro-4-[4-(piperidine-4-carbonyl)piperazine-1-carbonyl]phenyl]-5-[2-methoxy-4-(trifluoromethyl)pyrimidin-5-yl]-1-methyl-imidazole-2-carboxamide] the value was 1.4 µM; for `COc1ccc(-c2cnc(C(=O)Nc3ccc(C(=O)N4CCN(C(=O)C5CCNCC5)CC4)c(Cl)c3)n2C)c(C(F)F)n1` [Example A19, N-[3-chloro-4-[4-(piperidine-4-carbonyl)piperazine-1-carbonyl]phenyl]-5-[2-(difluoromethyl)-6-methoxy-3-pyridyl]-1-methyl-imidazole-2-carboxamide], 0.91 µM; for `CN(C)c1nc(F)c(-c2cnc(C(=O)Nc3ccc(C(=O)N4CCC(C(=O)NC5CC[N+](C)(C)C5)CC4)c(Cl)c3)n2C)cc1F` (centres unmarked) [Example D13, 1-[2-chloro-4-[[5-[6-(dimethylamino)-2,5-difluoro-3-pyridyl]-1-methyl-imidazole-2-carbonyl]amino]benzoyl]-N-(1,1-dimethylpyrrolidin-1-ium-3-yl)piperidine-4-carboxamide], 0.73 µM. As for `COc1ccc(-c2cnc(C(=O)Nc3ccc(C(=O)N4CCN(C(=O)C[C@@H]5CCNC5)CC4)c(Cl)c3)n2C)c(C(F)(F)F)n1` [Example A14, N-[3-chloro-4-[4-[2-[(3S)-pyrrolidin-3-yl]acetyl]piperazine-1-carbonyl]phenyl]-5-[6-methoxy-2-(trifluoromethyl)-3-pyridyl]-1-methyl-imidazole-2-carboxamide], the IC90 was 0.23 µM. On to `CN(C)c1nc(F)c(-c2cnc(C(=O)Nc3ccc(C(=O)N4CCN(C(=O)C[C@@H]5CCNC5)CC4)c(Cl)c3)n2C)cc1F` [Example F2, N-[3-chloro-4-[4-[2-[(3S)-pyrrolidin-3-yl]acetyl]piperazine-1-carbonyl]phenyl]-5-[6-(dimethylamino)-2,5-difluoro-3-pyridyl]-1-methyl-imidazole-2-carboxamide], for which the IC90 is 0.23 µM. Still for that read-out and setting: in the case of `CN(C)c1ccc(-c2cnc(C(=O)Nc3ccc(C(=O)N4CCN(C(=O)C5CCNCC5)CC4)c(Cl)c3)n2C)c(C(F)(F)F)n1` [Example A6, N-[3-chloro-4-[4-(piperidine-4-carbonyl)piperazine-1-carbonyl]phenyl]-5-[6-(dimethylamino)-2-(trifluoromethyl)-3-pyridyl]-1-methyl-imidazole-2-carboxamide] it was 0.31 µM; in that of `COc1ccc(-c2cnc(C(=O)Nc3ccc(C(=O)N4CCN(C(=O)[C@@H]5C[C@@H](O)CN5)CC4)c(Cl)c3)n2C)c(C(F)(F)F)n1` [Example A17, N-[3-chloro-4-[4-[(2S,4R)-4-hydroxypyrrolidine-2-carbonyl]piperazine-1-carbonyl]phenyl]-5-[6-methoxy-2-(trifluoromethyl)-3-pyridyl]-1-methyl-imidazole-2-carboxamide], 0.36 µM; in that of `CN(C)c1nc(F)c(-c2cnc(C(=O)Nc3ccc(C(=O)N4CCN(C(=O)CC5CC[N+](C)(C)CC5)CC4)c(Cl)c3)n2C)cc1F` [Example D7, N-[3-chloro-4-[4-[2-(1,1-dimethylpiperidin-1-ium-4-yl)acetyl]piperazine-1-carbonyl]phenyl]-5-[6-(dimethylamino)-2,5-difluoro-3-pyridyl]-1-methyl-imidazole-2-carboxamide], 0.76 µM. Still for that read-out and setting: for `COc1cc(Cl)c(-c2cnc(C(=O)Nc3ccc(C(=O)N4CCN(C(=O)C5CCNCC5)CC4)c(Cl)c3)n2C)cn1` [Example A15, 5-(4-chloro-6-methoxy-3-pyridyl)-N-[3-chloro-4-[4-(piperidine-4-carbonyl)piperazine-1-carbonyl]phenyl]-1-methyl-imidazole-2-carboxamide] the value was 0.66 µM. On the same count and under the same terms, for `Cc1nc(N(C)C)ccc1-c1cnc(C(=O)Nc2ccc(C(=O)N3CCN(C(=O)C4CCNCC4)CC3)c(Cl)c2)n1C` [Example E4, N-[3-chloro-4-[4-(piperidine-4-carbonyl)piperazine-1-carbonyl]phenyl]-5-[6-(dimethylamino)-2-methyl-3-pyridyl]-1-methyl-imidazole-2-carboxamide] the value was 1.4 µM. Turning to `CN(C)c1nc(F)c(-c2cnc(C(=O)Nc3ccc(C(=O)N4CCC(C(=O)NC5CCNC5)CC4)c(Cl)c3)n2C)cc1F` (centres unmarked) [Example F10, 1-[2-chloro-4-[[5-[6-(dimethylamino)-2,5-difluoro-3-pyridyl]-1-methyl-imidazole-2-carbonyl]amino]benzoyl]-N-pyrrolidin-3-yl-piperidine-4-carboxamide], the IC90 is 0.64 µM. The same measure, in the same setting: in the case of `Cn1c(-c2ccc3c(c2)OCCO3)cnc1C(=O)Nc1ccc(C(=O)N2CCN(C(=O)C3CCNCC3)CC2)c(Cl)c1` [Example A20, N-[3-chloro-4-[4-(piperidine-4-carbonyl)piperazine-1-carbonyl]phenyl]-5-(2,3-dihydro-1,4-benzodioxin-6-yl)-1-methyl-imidazole-2-carboxamide] it was 0.52 µM.

The assay is the same for the next values; noted with them: ATCC17961, 16 h, read-out: ATCC 17961 IC90 [μM].
Consider `CN(C)c1nc(F)c(-c2cnc(C(=O)Nc3ccc(C(=O)NC4CC(NC(=O)C[N+](C)(C)C)C4)c(Cl)c3)n2C)cc1F` (centres unmarked) [Example D8, [2-[[3-[[2-chloro-4-[[5-[6-(dimethylamino)-2,5-difluoro-3-pyridyl]-1-methyl-imidazole-2-carbonyl]amino]benzoyl]amino]cyclobutyl]amino]-2-oxo-ethyl]-trimethyl-ammonium], for which the IC90 came out at 2.7 µM.
